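Tested at 5 concentrations; 48 h exposure; 96-well plates; endpoints linearly interpolated, else capped at highest concentration. TGI denotes the concentration required for complete inhibition of growth.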
What was measured:
Test in all cases: NCI tumour cell line growth inhibition, 48 h
[1] = tested on: SF-539 CNS
[2] = tested on: SK-OV-3 ovarian
[3] = tested on: ACHN renal
[4] = tested on: UACC-257 melanoma
[5] = tested on: HOP-18 NSCLC
[6] = tested on: HOP-92 NSCLC
[7] = tested on: UACC-62 melanoma
[8] = tested on: NCI-H226 lung
[9] = tested on: IGROV1 ovarian
[10] = tested on: K-562 leukemia
[11] = tested on: HCC-2998 colon
[12] = tested on: LXFL 529 NSCLC
[13] = tested on: UO-31 renal
[14] = tested on: A498 renal
[15] = tested on: SF-268 CNS
[16] = tested on: COLO 205 colon
[17] = tested on: OVCAR-4 ovarian
[18] = tested on: DMS 114 small cell lung
[19] = tested on: SNB-75 CNS
[20] = tested on: HL-60(TB) leukemia
[21] = tested on: SN12C renal
[22] = tested on: NCI-H460 lung
[23] = tested on: SNB-78 CNS
[24] = tested on: MALME-3M melanoma
[25] = tested on: RXF-631 renal
[26] = tested on: HCT-15 colon
[27] = tested on: SK-MEL-5 melanoma
[28] = tested on: M14 melanoma
[29] = tested on: SK-MEL-28 melanoma
[30] = tested on: A549 NSCLC
[31] = tested on: HT29 colon
[32] = tested on: HOP-62 NSCLC
[33] = tested on: CAKI-1 renal
[34] = tested on: KM20L2 colon
[35] = tested on: SW-620 colon
[36] = tested on: MOLT-4 leukemia
[37] = tested on: LOX IMVI melanoma
[38] = tested on: 786-0 renal
[39] = tested on: KM12 colon
[40] = tested on: SK-MEL-2 melanoma
[41] = tested on: OVCAR-5 ovarian
[42] = tested on: RXF 393 renal
[43] = tested on: RPMI-8226 leukemia
[44] = tested on: DMS 273 small cell lung
[45] = tested on: CCRF-CEM leukemia
[46] = tested on: DLD-1 colon
[47] = tested on: U251 CNS
[48] = tested on: OVCAR-3 ovarian
[49] = tested on: NCI-H23 lung
[50] = tested on: SF-295 CNS
[51] = tested on: EKVX NSCLC
[52] = tested on: M19-MEL melanoma
[53] = tested on: XF 498 CNS
[54] = tested on: HCT-116 colon
[55] = tested on: OVCAR-8 ovarian
[56] = tested on: NCI-H522 lung
[57] = tested on: SNB-19 CNS
[58] = tested on: SR leukemia
[59] = tested on: TK-10 renal

Measured: TGI

O=C1[C@H]2ON(c3ccccc3)C(c3ccccc3)[C@H]2C(=O)N1c1ccc(Cc2ccc(N3C(=O)[C@@H]4ON(c5ccccc5)C(c5ccccc5)[C@@H]4C3=O)cc2)cc1 (stereo partly drawn)
not listed: [51] | [52] | [53] | [54] | [55] | [56] | [57] | [58] | [59]
> 100 µM: all other assays above

COc1ccc(/C(=N\NC(=O)C(=O)NN)C(c2ccc(OC)cc2)C2(O)C(=O)Nc3ccccc32)cc1 (stereo not drawn)
82.1 µM: [13]
not listed: [4] | [5] | [11] | [17] | [20] | [37] | [42] | [45] | [50]
> 100 µM: all other assays above

CCOC(=O)Cc1ccc2c(c1O)C(=O)c1c(ccc(CC(=O)OCC)c1O)C2=O
not listed: [9] | [17] | [22] | [25] | [26] | [33]
> 100 µM: all other assays above

Source: PubChem BioAssay (NCI)
